Experimental data as given in patent US20260285850A1, “SUBSTITUTED OXAZOLIDINONES AND IMIDAZOLINONES AS HERBICIDES” (FMC CORPORATION, priority 2023, published 2026).

Assays:
Type in all cases: in vivo
soybean (Glycine max) [1] = assay: Test A postemergence application, visual injury rating 0-100; conditions: for Soybean plant response rating (0 to 100 scale): Postemergence
Procedure, shortened: (§1)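 Plants were grown in a loam soil-sand blend and treated with test chemical in a non-phytotoxic solvent mixture containing surfactant, either sprayed on soil preemergence or applied postemergence to 2-10 cm plants. After 10 days in a greenhouse, injury was scored visually against untreated controls, 0 meaning no effect and 100 complete control.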

[2] = test system: blackgrass (Alopecurus myosuroides); assay: as above; conditions: for Blackgrass plant response rating (0 to 100 scale): Postemergence
Procedure, shortened: as §1

[3] = test system: barnyardgrass (Echinochloa crus-galli); assay: as above; conditions: for Barnyardgrass plant response rating (0 to 100 scale): Postemergence
Procedure, shortened: as §1

[4] = test system: oat, wild (wild oat, Avena fatua); assay: as above; conditions: for Oat, Wild plant response rating (0 to 100 scale): Postemergence
Procedure, shortened: as §1

kochia (Bassia scoparia) [5] = assay: as above; conditions: for Kochia plant response rating (0 to 100 scale): Postemergence
Procedure, shortened: as §1

[6] = test system: ragweed (common ragweed, Ambrosia artemisiifolia); assay: as above; conditions: for Ragweed plant response rating (0 to 100 scale): Postemergence
Procedure, shortened: as §1

[7] = test system: ryegrass, Italian (italian ryegrass, Lolium multiflorum); assay: as above; conditions: for Ryegrass, Italian plant response rating (0 to 100 scale): Postemergence
Procedure, shortened: as §1

[8] = test system: palmer (palmer amaranth, palmer pigweed, Amaranthus palmeri); assay: as above
Procedure, shortened: as §1

[9] = test system: green foxtail (Setaria viridis); assay: as above; conditions: for Foxtail, Green plant response rating (0 to 100 scale): Postemergence
Procedure, shortened: as §1

corn (Zea mays) [10] = assay: as above; conditions: for Corn plant response rating (0 to 100 scale): Postemergence
Procedure, shortened: as §1

[11] = test system: wheat (Triticum aestivum); assay: as above; conditions: for Wheat plant response rating (0 to 100 scale): Postemergence
Procedure, shortened: as §1

[12] = test system: galium (catchweed bedstraw, Galium aparine); assay: as above; conditions: for Galium plant response rating (0 to 100 scale): Postemergence
Procedure, shortened: as §1

[13] = test system: horseweed (Erigeron canadensis); assay: as above; conditions: for Horseweed plant response rating (0 to 100 scale): Postemergence
Procedure, shortened: as §1

soybean (Glycine max) [14] = assay: Test A preemergence soil spray, visual injury rating 0-100; conditions: 10 days
Procedure, shortened: as §1

[15] = test system: blackgrass (Alopecurus myosuroides); assay: as above; conditions: 10 days
Procedure, shortened: as §1

[16] = test system: barnyardgrass (Echinochloa crus-galli); assay: as above; conditions: 10 days
Procedure, shortened: as §1

[17] = test system: oat, wild (wild oat, Avena fatua); assay: as above; conditions: 10 days
Procedure, shortened: as §1

kochia (Bassia scoparia) [18] = assay: as above; conditions: 10 days
Procedure, shortened: as §1

[19] = test system: ragweed (common ragweed, Ambrosia artemisiifolia); assay: as above; conditions: 10 days
Procedure, shortened: as §1

[20] = test system: ryegrass, Italian (italian ryegrass, Lolium multiflorum); assay: as above; conditions: 10 days
Procedure, shortened: as §1

[21] = test system: palmer (palmer amaranth, palmer pigweed, Amaranthus palmeri); assay: as above; conditions: 10 days
Procedure, shortened: as §1

[22] = test system: green foxtail (Setaria viridis); assay: as above; conditions: 10 days
Procedure, shortened: as §1

corn (Zea mays) [23] = assay: as above; conditions: 10 days
Procedure, shortened: as §1

[24] = test system: wheat (Triticum aestivum); assay: as above; conditions: 10 days
Procedure, shortened: as §1

rice (Oryza sativa) = assay: Test B flooded paddy test, visual plant response rating 0-100; conditions: 250 g ai/ha, Flood, applied to paddy water, evaluated after 13 days
Procedure, shortened: (§2)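 Paddy-water application: test compounds went directly into water flooded 3 cm above the soil surface, with plants at 2 leaves. After a 13-day greenhouse period, responses were judged by eye relative to controls; a dash marks an untested entry.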

[25] = test system: sedge, umbrella (small-flower umbrella sedge, Cyperus difformis); assay: as above; conditions: 250 g ai/ha, Flood, applied to paddy water, evaluated after 13 days
Procedure, shortened: as §2

[26] = test system: ducksalad (Heteranthera limosa); assay: as above; conditions: 250 g ai/ha, Flood, applied to paddy water, evaluated after 13 days
Procedure, shortened: as §2

[27] = test system: barnyardgrass (Echinochloa crusgalli); assay: as above; conditions: 250 g ai/ha, Flood, applied to paddy water, evaluated after 13 days
Procedure, shortened: as §2

[28] = 31 g ai/ha, postemergence, 10 days, 0 = no effect, 100 = complete control
[29] = 125 g ai/ha, 10 days, 0 is no effect, 100 is complete control
[30] = 31 g ai/ha, 0 = no effect, 100 = complete control
[31] = 125 g ai/ha, 0 = no effect, 100 = complete control
[32] = 16 g ai/ha, greenhouse 10 days, 0 no effect, 100 complete control

## CCOC(=O)C1C=CC(NC(=O)C2(C)CN(c3cc(F)cc(Cl)c3)C(=O)O2)C1 (centres unmarked) [Compound 3]
Soybean (Glycine max) [1]; [28]
  Soybean plant response rating (0-100): 90
Soybean (Glycine max) [1]; [29]
  Soybean plant response rating (0 to 100 scale): 90
[2]; [28]
  Blackgrass plant response rating (0-100): 80
[2]; [29]
  Blackgrass plant response rating (0 to 100 scale): 90
[3]; [28]
  Barnyardgrass plant response rating (0-100): 100
[3]; [29]
  Barnyardgrass plant response rating (0 to 100 scale): 100
[4]; [28]
  Oat, Wild plant response rating (0-100): 90
[4]; [29]
  Oat, Wild plant response rating (0 to 100 scale): 90
Kochia (Bassia scoparia) [5]; [28]
  Kochia plant response rating (0-100): 70
Kochia (Bassia scoparia) [5]; [29]
  Kochia plant response rating (0 to 100 scale): 70
[6]; [28]
  Ragweed plant response rating (0-100): 50
[6]; [29]
  Ragweed plant response rating (0 to 100 scale): 80
[7]; [28]
  Ryegrass, Italian plant response rating (0-100): 80
[7]; [29]
  Ryegrass, Italian plant response rating (0 to 100 scale): 90
[8]; [28]
  Amaranth, Palmer plant response rating (0-100): 50
[8]; Postemergence, 125 g ai/ha, 10 days, 0 is no effect, 100 is complete control
  Amaranth, Palmer / Pigweed, Palmer plant response rating (0 to 100 scale): 70
[9]; [28]
  Foxtail, Green plant response rating (0-100): 90
[9]; [29]
  Foxtail, Green plant response rating (0 to 100 scale): 90
Corn (Zea mays) [10]; [28]
  Corn plant response rating (0-100): 100
Corn (Zea mays) [10]; [29]
  Corn plant response rating (0 to 100 scale): 100
[11]; [28]
  Wheat plant response rating (0-100): 90
[11]; [29]
  Wheat plant response rating (0 to 100 scale): 90
[12]; [28]
  Galium plant response rating (0-100): 80
[12]; [29]
  Galium plant response rating (0 to 100 scale): 90
[13]; [28]
  Horseweed plant response rating (0-100): 50
[13]; [29]
  Horseweed plant response rating (0 to 100 scale): 80
Soybean (Glycine max) [14]; [30]
  Soybean plant response rating (0-100): 20
Soybean (Glycine max) [14]; [31]
  Soybean plant response rating (0 to 100 scale): 80
[15]; [30]
  Blackgrass plant response rating (0-100): 0
[15]; [31]
  Blackgrass plant response rating (0 to 100 scale): 70
[16]; [30]
  Barnyardgrass plant response rating (0-100): 90
[16]; [31]
  Barnyardgrass plant response rating (0 to 100 scale): 100
[17]; [30]
  Oat, Wild plant response rating (0-100): 10
[17]; [31]
  Oat, Wild plant response rating (0 to 100 scale): 90
Kochia (Bassia scoparia) [18]; [30]
  Kochia plant response rating (0-100): 70
Kochia (Bassia scoparia) [18]; [31]
  Kochia plant response rating (0 to 100 scale): 100
[19]; [30]
  Ragweed plant response rating (0-100): 10
[19]; [31]
  Ragweed plant response rating (0 to 100 scale): 30
[20]; [30]
  Ryegrass, Italian plant response rating (0-100): 50
[20]; [31]
  Ryegrass, Italian plant response rating (0 to 100 scale): 90
[21]; [30]
  Amaranth, Palmer plant response rating (0-100): 80
[21]; [31]
  Amaranth, Palmer plant response rating (0 to 100 scale): 100
[22]; [30]
  Foxtail, Green plant response rating (0-100): 30
[22]; [31]
  Foxtail, Green plant response rating (0 to 100 scale): 100
Corn (Zea mays) [23]; [30]
  Corn plant response rating (0-100): 50
Corn (Zea mays) [23]; [31]
  Corn plant response rating (0 to 100 scale): 50
[24]; [30]
  Wheat plant response rating (0-100): 50
[24]; [31]
  Wheat plant response rating (0 to 100 scale): 90
Rice (Oryza sativa)
  Plant response rating, Rice (0 to 100 scale, 0 is no effect and 100 is complete control): 70
[25]
  Plant response rating, Sedge, Umbrella (0 to 100 scale, 0 is no effect and 100 is complete control): 100
[26]
  Plant response rating, Ducksalad (0 to 100 scale, 0 is no effect and 100 is complete control): 90
[27]
  Plant response rating, Barnyardgrass (0 to 100 scale, 0 is no effect and 100 is complete control): 95

## CC1(C(=O)NC2C=CC(C(=O)O)C2)CN(c2cc(F)c(F)c(F)c2)C(=O)O1 (centres unmarked) [Compound 123]
Soybean (Glycine max) [1]; [32]
  Soybean plant response rating (0 to 100 scale): 60
[2]; [32]
  Blackgrass plant response rating (0 to 100 scale): 90
[3]; [32]
  Barnyardgrass plant response rating (0 to 100 scale): 60
[4]; [32]
  Oat, Wild plant response rating (0 to 100 scale): 60
Kochia (Bassia scoparia) [5]; [32]
  Kochia plant response rating (0 to 100 scale): 0
[6]; [32]
  Ragweed plant response rating (0 to 100 scale): 0
[7]; [32]
  Ryegrass, Italian plant response rating (0 to 100 scale): 60
[8]; Postemergence, 16 g ai/ha, greenhouse 10 days, 0 no effect, 100 complete control
  Pigweed, Palmer plant response rating (0 to 100 scale): 20
[9]; [32]
  Foxtail, Green plant response rating (0 to 100 scale): 30
Corn (Zea mays) [10]; [32]
  Corn plant response rating (0 to 100 scale): 70
[11]; [32]
  Wheat plant response rating (0 to 100 scale): 80
[12]; [32]
  Galium plant response rating (0 to 100 scale): 30
[13]; [32]
  Horseweed plant response rating (0 to 100 scale): 0
Soybean (Glycine max) [14]; 16 g ai/ha, 0 to 100 scale
  Soybean plant response rating: 0
[15]; 16 g ai/ha, 0 to 100 scale
  Blackgrass plant response rating: 0
[16]; 16 g ai/ha, 0 to 100 scale
  Barnyardgrass plant response rating: 0
[17]; 16 g ai/ha, 0 to 100 scale
  Oat, Wild plant response rating: 10
Kochia (Bassia scoparia) [18]; 16 g ai/ha, 0 to 100 scale
  Kochia plant response rating: 0
[19]; 16 g ai/ha, 0 to 100 scale
  Ragweed plant response rating: 0
[20]; 16 g ai/ha, 0 to 100 scale
  Ryegrass, Italian plant response rating: 0
[21]; 16 g ai/ha, 0 to 100 scale
  Pigweed, Palmer plant response rating: 0
[22]; 16 g ai/ha, 0 to 100 scale
  Foxtail, Green plant response rating: 0
Corn (Zea mays) [23]; 16 g ai/ha, 0 to 100 scale
  Corn plant response rating: 0
[24]; 16 g ai/ha, 0 to 100 scale
  Wheat plant response rating: 80
Rice (Oryza sativa)
  Plant response rating, Rice (0 to 100 scale, 0 is no effect and 100 is complete control): 10
[25]
  Plant response rating, Sedge, Umbrella (0 to 100 scale, 0 is no effect and 100 is complete control): 0
[26]
  Plant response rating, Ducksalad (0 to 100 scale, 0 is no effect and 100 is complete control): 55
[27]
  Plant response rating, Barnyardgrass (0 to 100 scale, 0 is no effect and 100 is complete control): 0
